Source: patent publication US6747038B2, “Phenanthridine derivatives and antitumoral medicaments containing phenanthridine” (priority 2000, dated 2004)
Where a name gives a salt, the structure may show the parent alone.

Test system: panel of 12 human pathogenic tumour cell lines of six types of cancer
Assay: in vivo-hollow fiber assay of the National Cancer Institute
Settings: for NCI criteria fulfilled: (a) total points higher than 20, (b) subcutaneous points higher than 8, (c) cell kill characteristics; for Points (sum) / Points (intraperitoneal) / Points (subcutaneous): NCI point system; for Points (sum): 2 points per administration giving at least 50% reduction of tumour cell growth, maximum 96, hollow fibers in nude mice, intraperitoneal plus subcutaneous, 4 doses at 24 h intervals, two concentrations; for Points (intraperitoneal): intraperitoneally implanted hollow fibers in nude mice; for Points (subcutaneous): subcutaneously implanted hollow fibers in nude mice; for Cell killing properties: vital tumour cell mass of at least one cell line less than the starting value after treatment
Protocol: In order to examine the pharmacological properties, these compounds (BP-7, BP-8, BP-D8) as well as 6-Amino-11-(2′,4′-dimethoxyphenyl)benzo[c]-phenanthridine perchlorate (BP-D3) [PCT/WO 97/14683] were examined in an “in vivo-hollow fiber assay” of the National Cancer Institute (NCI), Bethesda, Md., USA.
Compounds were tested against a panel of 12 human pathogenic tumour cell lines of six types of cancer (non-small cell lung cancer, melanoma, breast cancer, ovarian cancer, colon cancer, CNS cancer).
The cell lines were cultivated in polyvinylidenfluorine hollow fibers which are permeable to small molecules and which were implanted into nude mice. Three hollow fibers were implanted every animal intraperitoneally and subcutaneously which means three tumor cell lines could be examined in each animal in two physiological sites.
The animals were treated four times with a dose of the test substance with a time interval of 24 hours. For this purpose, every compound was administered at two concentrations. At the end of the treatment the hollow fibers were regained and the number of the vital tumour cells or rather of the protein biomass was determined photometrically by an MTT-Formazan-Assay in order to determine the inhibition of growth by the phenanthridines. Mice with prepaired tumour cell cultures in hollow fibers which were only treated by solvent served as control.
The evaluation of test results is based on a point system given by NCI.
Each administration of a test substance which leads to a reduction of the tumour cell growth of at least 50% is given a score of two points. The maximum number of points for one compound is therefore 96 points (12 cell lines*2 implantation sites*2 concentrations of the test substance*2 points). In addition for further specification the results on subcutaneously and intraperitoneally implanted hollow fibers are treated separately. There are three criteria given by NCI. A test substance in the “in vivo-hollow fiber assay” has to fulfill at least one criterion in order to be regarded as suitable for further tests:
(a) the total sum of the points from intraperitoneal and subcutaneous application must be higher than 20.
(b) The total sum of the points of the subcutaneous application must be higher than 8.
(c) After the treatment the vital tumour cell mass of at least one cell line must be less than the starting value (cell kill characteristics).

| Compound | NCI criteria fulfilled | Points (sum) [Points] | Points (intraperitoneal) [Points] | Points (subcutaneous) [Points] | Cell killing properties | activity in the in vivo-hollow fiber assay (compared with all tested phenanthridines) |
| --- | --- | --- | --- | --- | --- | --- |
| COc1ccc(C2Cc3ccccc3-c3nc(N)c4ccccc4c32)c(OC)c1OC (stereo not drawn) [BP-8, 6-Amino-11,12dihydro-11-(2′,3′,4′-trimethoxyphenyl)benzo[c]-phenanthridine hydrochloride] | (b) and (c) | 20 | 10 | 10 | Yes |  |
| COc1cc(C2Cc3ccccc3-c3nc(N)c4ccccc4c32)cc(OC)c1OC (stereo not drawn) [BP-7, 6-Amino-11,12dihydro-11-(3′,4′,5′-trimethoxyphenyl)benzo[c]-phenanthridine hydrochloride] | (b) and (c) | 16 | 6 | 10 | Yes |  |
| COc1ccc(-c2cc3ccccc3c3nc(N)c4ccccc4c23)c(OC)c1.[O-][Cl+3]([O-])([O-])O [BP-D3, 6-Amino-11-(2′,4′-dimethoxyphenyl)benzo[c]phenanthridine perchlorate, reference compound] | (c) only | 10 | 2 | 8 | Yes |  |
| COc1cc(-c2cc3ccccc3c3nc(N)c4ccccc4c23)cc(OC)c1OC [BP-D7, 6-Amino-11-(3′,4′,5′-trimethoxyphenyl)benzo[c]phenanthridine perchlorate] | a, b and c | 28 | 14 | 14 | Yes | highest activity |
